Measurements published in patent US20080248548A1, “MODULATION OF PROTEIN FUNCTIONALITIES” (priority 2007, published 2008).

Molecular target: T1, p38 MAP kinase (Homo sapiens, UniProt Q16539)
T1 construct: made in house; host or cells: E. coli
Assay: P38 MAP kinase binding assay (competition with fluorescent probe SKF 86002)
Conditions: inhibition assigned as time-dependent if the IC50 values decrease with the reaction time (more than two-fold in four hours)
Procedure: Thus, the ability of a small molecule to block fluoroprobe binding provides an experimental readout of binding to the switch control pocket. […] The reaction was initiated by addition of the enzyme. […] By comparison of rfu (relative fluorescence unit) values with that of a control (in the absence of small molecule modulators), the percentage of inhibition at each concentration of the small molecules were calculated. IC50 values for the small molecule modulators were calculated from the % inhibition values obtained at a range of concentrations of the small molecule modulators using Prism. When time-dependent inhibition was assessed, the plate was read at multiple reaction times such as 0.5, 1, 2, 3, 4 and 6 hours. The IC50 values were calculated at each time point. An inhibition was assigned as time-dependent if the IC50 values decrease with the reaction time (more than two-fold in four hours).

T1 sequence (Q16539 whole entry): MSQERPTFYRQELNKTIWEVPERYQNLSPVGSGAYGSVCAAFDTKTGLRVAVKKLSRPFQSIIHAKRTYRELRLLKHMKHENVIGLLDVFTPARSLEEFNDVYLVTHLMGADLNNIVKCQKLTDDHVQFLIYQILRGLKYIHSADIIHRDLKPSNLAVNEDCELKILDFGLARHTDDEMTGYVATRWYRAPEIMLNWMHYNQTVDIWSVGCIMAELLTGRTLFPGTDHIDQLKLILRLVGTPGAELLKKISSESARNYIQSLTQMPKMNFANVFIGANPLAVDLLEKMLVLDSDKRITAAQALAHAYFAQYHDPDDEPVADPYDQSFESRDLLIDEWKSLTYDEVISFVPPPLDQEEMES

SMILES | Time-dependent
CC(C)(C)c1cc(NC(=O)Nc2cccc3ccccc23)n(-c2cccc(CC(=O)N3CCOCC3)c2)n1 [Example 21, 1-{3-tert-butyl-1-[3-(2-morpholino-2-oxoethyl)phenyl)-1H-pyrazol-5-yl}-3-(naphthalene-1-yl)urea] | Yes
CC1(C(=O)O)CC2(C)CC(C)(C1)C(=O)N(Cc1cccc(-n3nc(C(C)(C)C)cc3NC(=O)Nc3cccc4ccccc34)c1)C2=O (stereo not shown) [Example 11] | No
CC(C)(C)c1cc(NC(=O)Nc2cccc3ccccc23)n(-c2ccc(CN)cc2)n1 [Example 45, 1-{3-tert-butyl-1-[4-(aminomethyl)phenyl]-1H-pyrazol-5-yl}-3-(naphthalen-1-yl)urea] | No
CC1(C(=O)O)CC2(C)CC(C)(C1)C(=O)N(Cc1cccc(-n3nc(C(C)(C)C)cc3NC(=O)Nc3ccc(Cl)cc3)c1)C2=O (stereo not shown) [Example 12] | No
